# Experimental data reported in US10273240B2, “Cortistatin analogues, syntheses, and uses thereof” (President and Fellows of Harvard College, priority 2015, dated 2019).
# Read-outs that look alike come from different tables or passages of the source.
# How the values were obtained:
# MV4;11 = experiment: Cell growth assay, MV4;11; type: cell-based; conditions: Homo sapiens
# Protocol: (§1) All media was supplemented with 100 U/mL penicillin and 100 μg/mL streptomycin. Human cancer cell lines were grown in the following media: MV4; 11, K562, MOLM-14 in RPMI-1640, 10% FBS; SKNO-1 in RPMI-1640, 10% FBS, and 10 ng/mL GM-CSF; MV4;11 and K562 were from ATCC. SKNO-1 was from DSMZ.
# (§2) Cell Culture. All media was supplemented with 100 U/mL penicillin and 100 μg/mL streptomycin. Human cancer cell lines were grown in the following media: MV4; 11, RS4; 11, K562, HEL, MOLM-14, MEG-01 in RPMI-1640, 10% FBS; SET-2 in RPMI-1640, 20% FBS; UKE-1 in RPMI-1640, 10% FBS, 10% horse serum and 1 μM hydrocortisone; SKNO-1 and TF-1 in RPMI-1640, 10% FBS, and 10 or 2 ng/mL GM-CSF, respectively; HaCaT in DMEM, 10% FBS; and HCT116 in McCoy's 5 A, 10% FBS (proliferation assay) or DMEM, 10% FBS (gene expression study). HepG2, MV4;11, RS4;11, MEG-01, TF-1, HCT116 and K562 were from ATCC. SKNO-1 was from DSMZ. HEL, UKE-1, and SET-2 were provided by Ross L. Levine and HaCaT, MV4;11-mCLP, and MOLM-14 by Van Wilson, Andrew L. Kung, and Scott A. Armstrong, respectively. MOLM-14 cells were authenticated by STR profiling and flow cytometry and all cell lines were routinely tested and found to be negative for mycoplasma.
# [1] = Pharmacokinetic study in mice; type: in vivo; conditions: once-daily intraperitoneal (IP) dosing
# Protocol: In Vivo Studies. Studies were performed at Charles River Laboratories (CRL) and Dana Farber Cancer Institute (DFCI) where indicated and approved by Harvard University and each institution's respective animal care and use committee. For pharmacokinetic studies, serial blood samples from 7 week old male CD-1 mice (n=3 per timepoint) were collected (no blinding) into K2EDTA tubes, centrifuged, transferred into 96-well plates (matrix tubes), stored at −20° C., and analysed by HPLC/MS/MS (in-life performed at CRL). Study size was determined by the need for three blood samples per timepoint with three blood samples collected per mouse. The MV4; 11 xenograft model were performed as previously described (Etchin, J. et al. Antileukemic activity of nuclear export inhibitors that spare normal hematopoietic cells. Leukemia 27, 66-74 (2013); in-life performed at DFCI) Two million MV4;11-mCLP cells were injected into the tail vein of 7-week-old female NOD-SCID-IL2Rcγ^null (NSG) mice (The Jackson Laboratory) and tumor burden was assessed by bioluminescence imaging (BLI) using an IVIS Spectrum system (Caliper Life Sciences). […] After 30 days, blood counts were obtained (Hemavet 950 F, Drew Scientific) and spleen, femur, and peripheral blood cells were collected and analysed by flow cytometry (LSR Fortessa, BD Biosciences) from 3 mice/group. […]
# SKNO-1 = experiment: Cell growth assay, SKNO-1; type: cell-based; conditions: Homo sapiens, SKNO-1, 240 h
# Protocol: as §1, §2
# [2] = biological target: T1, GSG2 in MOLM-14 cell lysate (Homo sapiens, UniProt Q8TF76); experiment: Native kinase capture immunoblot, GSG2; type: binding
# T1 construct: endogenous in cells; host or cells: MOLM-14 cell lysate
# T1 sequence (Q8TF76 whole entry): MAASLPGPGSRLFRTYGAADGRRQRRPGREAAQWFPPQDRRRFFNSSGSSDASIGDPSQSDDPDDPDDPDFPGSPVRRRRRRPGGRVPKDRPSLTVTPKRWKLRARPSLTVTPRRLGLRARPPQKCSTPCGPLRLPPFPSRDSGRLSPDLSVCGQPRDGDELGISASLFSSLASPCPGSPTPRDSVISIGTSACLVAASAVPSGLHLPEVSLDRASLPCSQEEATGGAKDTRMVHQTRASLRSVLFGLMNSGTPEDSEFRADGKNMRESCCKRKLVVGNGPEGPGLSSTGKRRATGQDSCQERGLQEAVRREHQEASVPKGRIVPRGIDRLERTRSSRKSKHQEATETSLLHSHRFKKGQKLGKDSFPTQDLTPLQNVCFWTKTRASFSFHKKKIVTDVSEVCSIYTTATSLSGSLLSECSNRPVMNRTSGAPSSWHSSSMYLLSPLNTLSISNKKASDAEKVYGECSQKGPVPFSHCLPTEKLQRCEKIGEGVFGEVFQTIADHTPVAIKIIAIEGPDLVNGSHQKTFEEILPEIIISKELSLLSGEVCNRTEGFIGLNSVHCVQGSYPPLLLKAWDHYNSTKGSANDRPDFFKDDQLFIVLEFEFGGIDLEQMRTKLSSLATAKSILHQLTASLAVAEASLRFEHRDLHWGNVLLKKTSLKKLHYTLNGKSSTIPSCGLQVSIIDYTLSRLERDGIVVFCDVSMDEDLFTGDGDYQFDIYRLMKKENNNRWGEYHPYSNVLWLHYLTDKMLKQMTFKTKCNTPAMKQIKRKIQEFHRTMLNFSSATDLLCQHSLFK
# Protocol: Native Kinase Capture Immunoblot and Native Kinome-Wide Profiling. […] Experiment was performed twice with one immunoblot shown.
# SET-2 = experiment: Cell growth assay, SET-2; type: cell-based; conditions: Homo sapiens
# Protocol: as §2
# HEL = experiment: Cell growth assay, HEL; type: cell-based; conditions: Homo sapiens, 240 h, CA, after 10 days, read-out: Mean GI50 (nM), HEL
# Protocol: as §2
# [3] = tested on: myeloid, mixed-lineage, and megakaryoblastic leukemia cell lines; experiment: Cell growth assay, leukemia cell lines in general; type: cell-based; conditions: Homo sapiens, 240 h; 10-day treatment
# RS4;11 = experiment: Cell growth assay, RS4;11; type: cell-based; conditions: Homo sapiens, RS4-11, 240 h; CA, after 10 days; read-out: Mean GI50 (nM), RS4;11
# Protocol: as §2
# UKE-1 = experiment: Cell growth assay, UKE-1; type: cell-based; conditions: Homo sapiens, UKE1, 240 h; CA, after 10 days
# Protocol: as §2
compound,measurement,setting,value
"CN(C)[C@H]1C[C@@]23CC[C@@]4(O2)C(=CC[C@@]2(C)[C@@H](c5ccc6ccncc6c5)CC[C@H]24)C=C3[C@@H](O)[C@@H]1O [CA, cortistatin A]",GI50,"MV4;11; MV4-11, 240 h, CA, after 10 days, read-out: Mean GI50 (nM), MV4;11",6 nM
same,GI50,"MV4;11; MV4-11, 240 h, read-out: MV4;11 GI50 day 10",3.5 nM
same,GI50,"MV4;11; MV4-11, Table 5, read-out: GI50 (nM), MV4;11",6 nM
same,pharmacokinetic properties,[1],acceptable pharmacokinetic properties
same,GI50,"SKNO-1; CA, after 10 days, read-out: Mean GI50 (nM), SKNO-1",1 nM
same,GI50,SKNO-1; read-out: SKNO-1 GI50 day 10,< 0.4 nM
same,binding of GSG2 (no binding at up to),[2],> 2500 nM
same,GI50,"SET-2; SET-2, 240 h, CA, after 10 days, read-out: Mean GI50 (nM), SET-2",4 nM
same,GI50,"SET-2; SET-2, Table 5, read-out: GI50 (nM), SET2",4 nM
same,GI50,HEL,> 1000 nM
same,GI50,[3],< 10 nM
same,GI50,RS4;11,3 nM
same,GI50,UKE-1,7 nM
